Data as given in US8802635B2, “Antioxidant, anti-inflammatory, anti-radiation, metal chelating compounds and uses thereof” (Oneday—Biotech And Pharma Ltd., priority 2011, dated 2014).
Non-standard residues stand in square brackets, D forms with d. βAla = NCCC(=O)O

Tests used:
p38 MAP Kinase = assay: Inhibition of oxidative stress (auranofin)-induced p38 phosphorylation in SH-SY5Y cells; type: cell-based, Human; conditions: auranofin 5 μM
Procedure: Human neuroblastoma SH-SY5Y cells were maintained in Dulbecco's modified Eagle's medium (DMEM, Invitrogen) supplemented with 10% fetal bovine serum (Invitrogen), 100 μg/ml streptomycin and 100 U/ml penicillin G (Gibco). Cells were plated at a density of 6.25×10^4/cm^2 and incubated for 24 hours, after which they were exposed to different treatments.
SH-SY5Y cells were plated on 96-well plates and treated with Auranofin (AuF) (5 μM) for 30 min. Then the cells were washed with PBS and treated with either one of the peptides at the indicated concentrations. Twenty-four hours later, the cells were fixed with glutaraldehyde in final concentration of 0.5% for 10 min. Cells were washed 3 times with DDW dried over night, and washed once with borate buffer (0.1M, pH 8.5). The fixed cells were stained with 200 μl of 1% methylene blue dissolved in borate buffer for 1 hour. After extensive washing and drying, the color was extracted with 200 μl of 0.1 M HCl for 1 h at 37° C. and absorbance was read in spectrophotometer at 630 nm.
Twenty to thirty micrograms of protein samples were loaded on 10-12% SDS-PAGE gels. The proteins were then transferred electrophoretically to nitrocellulose (Whatman, Germany). The blots were blocked by incubation for 1 h at room temperature (RT) in TBS-T (25 mM Tris-HCl pH 7.4, 0.9% NaCl and 0.02% Tween-20) with 4% Difco skim milk (BD, USA), and incubated over-night at 4° C. with the primary antibody: pERK1/2 (Thr 202/Tyr204), mouse mAb, (1:6,000); p-SAPK/JNK (Thr183/Tyr185), rabbit mAb; SAPK/JNK, mouse mAb; p-p38MAP Kinase (Thr180/Tyr182), rabbit mAb; cleaved caspase 3, rabbit mAb. All antibodies were from Cell Signaling Tech. USA, used at 1:1000. Purified b Catenin, mouse mAb, (1:10,000; BD Transduction Laboratories, USA) diluted in 5% BSA, 0.04% Azide in TBS-T. Proteins were detected with Anti-Mouse or Anti-Rabbit IgG-HRP linked antibody (1:10,000; Cell Signaling, Tech. USA).

[1] = Metal chelation: copper binding by mass spectra (ESI); conditions: 0.83 mM peptide, 1.66 mM CuSO4, 1 hour room temperature
Procedure: All five peptides were examined for their ability to bind copper and ferric ions. 0.83 mM of each peptide were mixed with 1.66 mM of either FeCL3 or CuSO4. The mixtures were incubated for 1 hour at room temperature and further kept at ° 4 C until analysis. Samples were analyzed by mass spectra (ESI).

IkappaBalpha = assay: Cytoplasmic stability of I-kappaBalpha in lung, zymosan-induced inflammation; type: in vivo, mice; conditions: lung tissue, 24 hours after zymosan
Procedure: Male BALB/c mice were randomly allocated into the following experimental groups:
The peptides were administered by an intraperitoneal (i.p.) route of administration as described in Example 3.
The peptides were formulated in D5W as described in Example 3. The vehicle control was D5W.
At 24 hours after administration of zymosan, animals were euthanized and assessed for inflammation by an NF-κB analysis of lung tissue.
Tissues were homogenized and nuclear extracts prepared via centrifugation. ELISA for IkappaBalpha was performed, using a series of standards in order to define absolute concentrations.

[2] = tested on: carrageenan-induced hind paw swelling; assay: Carrageenan-induced hind paw swelling; type: in vivo, mice; conditions: 150 mg/kg i.p. 30 min prior to carrageenan; for swelling reduction compared to control: control saline only
Procedure: The above new five peptides were examined for anti-inflammatory activity, and their activity was compared to that of peptide CB3. Male ICR mice received an i.p. administration of each of the tested peptide (150 mg/kg) 30 min prior to the injection of carrageenan into the sub-plantar area of both of the animal's hind paws. Carrageenan was dissolved in water at concentration of 3 mg/ml and injected at a volume of 50 μl. Hind paw thickness was measured by Mitutoyo® micrometer before carrageenan injection and afterward at intervals of 1 hour between each measurement. Swelling was calculated as the difference between the thickness of the hind paw measured at each time interval and its size at time 0 (before carrageenan injection). n=6 foot pads (3 animals) for each group.

HaCaT cells = assay: UVB-induced cytotoxicity in HaCaT cells (MTT); type: cell-based; conditions: UVB 0.05 J/cm^2; MTT after 72 hours
Procedure: HaCaT cells were seeded in 96-wells plate (10×10^4/ml) and incubated in 37° C., 6% CO2 for 24 hours. Cells were incubated with the peptides at the indicated concentrations for 2.5 hours and washed (PBS). Then 100 μl PBS were added to each well followed by UVB irradiation (0.05 J/cm^2). Cells were washed with PBS and incubated with culture medium (DMEM, 100 μl) containing the peptides. MTT assay was carried out after 72 hours.

[3] = tested on: cellularity of the peritoneal exudates; assay: Ovalbumin-induced hypersensitivity (allergic peritonitis): peritoneal cellularity; type: in vivo, mice; conditions: 125 mg/kg i.p. on days 13, 14, 15
Procedure: (§1) Male BALB/c mice (6-8 weeks old) were housed under specific pathogen-free conditions and maintained on a 12-hour light/dark cycle, with food and water ad libitum. All materials and drugs were obtained from Sigma, Inc.
(§2) Mice in Groups A, B, C, and E (n=10 per group) were sensitized with intraperitoneal (i.p.) 200 μl of sterile PBS containing 100 μg ovalbumin (OVA) and 1.6 mg alum on days 0 and 7, and challenged with intraperitoneal (i.p.) 200 μl of sterile PBS containing 10 μg ovalbumin (OVA) on day 14 in order to induce an experimental model of allergic peritonitis. Mice in Group F (n=10) were injected with intraperitoneal (i.p) 200 μl sterile PBS (“sham” group, no OVA and no Alum).
(§3) Mice in Groups A, B, and C, were treated with 150 μl of sterile PBS containing peptides DY-66, DY-65 and DY-70, respectively, at a dose of 125 mg/kg on days 13, 14, and 15 via an i.p. route of administration.
(§4) Mice in Groups E and F were treated with 150 μl of sterile PBS on days 13, 14, and 15 via an i.p. route of administration. On day 14 the test articles (or PBS vehicle) were injected 30 minutes before injecting the OVA.

anti-OVA serum IgE = assay: Ovalbumin-induced hypersensitivity: serum anti-OVA IgE; type: in vivo, mice; conditions: for effect on OVA-induced elevation of anti-OVA serum IgE titer (in words) / rank order of reduction of anti-OVA serum IgE titer: 125 mg/kg i.p. on days 13, 14, 15, blood day 16
Procedure: as §1, §2, §3, §4
Blood taken on day 16 was tested for 1) serum anti-OVA IgE, 2) white blood cell count and differential (including absolute and percentage of eosinophils count). Serum was frozen at −80° C. for future optional blood tests.

Substance	IC50 (p38 MAP Kinase) [µM]	copper binding (in words) [1]	rank order of efficacy on cytoplasmic IkappaBalpha (IkappaBalpha)	swelling reduction compared to control ([2]; after 1 hour) [%]	swelling reduction compared to control ([2]; after 2 hours) [%]	swelling reduction compared to control ([2]; after 3 hours) [%]	protection against UVB-induced cytotoxicity (in words) (HaCaT cells)	effect on OVA-induced elevation of peritoneal exudate cellularity (in words) [3]	rank order of reduction of peritoneal exudate cellularity [3]	effect on OVA-induced elevation of anti-OVA serum IgE titer (in words) (anti-OVA serum IgE)	rank order of reduction of anti-OVA serum IgE titer (anti-OVA serum IgE)	greatest reduction of the OVA-induced elevation of anti-OVA serum IgE (anti-OVA serum IgE; 125 mg/kg i.p., % of the OVA-induced elevation)	hind paw swelling compared to control (in words) [2]
N-acetyl-Cys-Lys-Met-Cys-NH2 (Ac-CKMC-NH2; cysteine pairing not given here) [DY-65]	36.7	binding was observed	DY-70>DY-65>DY-66	40	27	34	protective effect at low concentrations	significantly reduced the elevation	DY-65>DY-70>DY-66	significantly reduced the elevation	DY-65>DY-70>DY-66	ca. 60%	–
N-acetyl-Cys-βAla-His-Cys-NH2 (Ac-C[βAla]HC-NH2; cysteine pairing not given here) [DY-66]	67	low degree	DY-70>DY-65>DY-66	–	–	–	protective effect at low concentrations	significantly reduced the elevation	DY-65>DY-70>DY-66	significantly reduced the elevation	DY-65>DY-70>DY-66	–	Reduced swelling compared to control
